From patent US8865750B2, “Small molecule inhibitors of RGS proteins” (The Regents of The University of Michigan, priority 2011, dated 2014)
Like-named read-outs stand apart in the source and are kept apart here.

Legend:
RGS4 = assay: FCPIA: Gαo binding to RGS4; details: for RGS4 Hill Slope: Table 3; for IC50: read-out: RGS4 IC50
Text: (§1) FCPIA Dose Response and Reversibility Experiments:

RGS8 = RGS8 (Homo sapiens (Human), UniProt P57771); assay: FCPIA: Gαo binding to RGS8; details: for RGS8 Hill Slope: Table 3; for IC50: read-out: RGS8 IC50
RGS8, sequence (P57771 other isoform, or with tags, fused parts or gaps): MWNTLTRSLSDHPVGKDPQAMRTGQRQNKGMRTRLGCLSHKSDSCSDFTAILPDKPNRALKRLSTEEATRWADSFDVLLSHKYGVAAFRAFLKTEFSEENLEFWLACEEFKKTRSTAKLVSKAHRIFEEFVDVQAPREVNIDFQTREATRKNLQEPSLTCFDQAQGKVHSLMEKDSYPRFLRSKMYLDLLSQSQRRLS
Text: as §1

HEK293 cells = assay: Calcium mobilization induced by compound alone; format: cell-based; details: for Emax at 10 µM: Homo sapiens, HEK293, read-out: Calcium transient (% 50014); for induction of calcium transient by compound alone: 10 μM, HEK293 cells;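 as to Calcium transient (% 50014): percent of response to 10 µM reference CCG-50014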
Description: Calcium Mobilization Experiments:
A stable cell line was developed based upon the HEK-293 Flp-In TREx cell line (Invitrogen, Carlsbad, Calif.) that stably express the muscarinic M3 receptor and have human RGS4 expression under doxycycline control. Cells were maintained in DMEM supplemented with 10% fetal bovine serum and Penicillin (100 units/ml)-Streptomycin (100 μg/ml) under 5% CO2 at 37° C. For experiments, cells were split into 96-well black, clear bottom, poly-D-lysine coated microtiter plates (Nunc, Cat. #152037) at a density of 20,000 cells/well in DMEM containing 10% fetal bovine serum and Penicillin (100 units/ml), Streptomycin (100 μg/ml). RGS4 expression was induced by supplementing the medium with 1 μg/mL doxycycline for 24-48 hours before experimentation. Cells were loaded with Fluo-4 No Wash dye in buffer for 30 minutes at 37° C. Compounds and/or carbachol were added to the wells and the fluorescence intensity was measured using a FlexStation (Molecular Devices, Sunnyvale, Calif.) plate reader. Data analysis was performed by calculating the area under the curve or maximal fluorescence intensity from a 120 second kinetic measurement.

[1] = Table 3, duplex FCPIA, average of two experiments

Structure (SMILES)	RGS4 Hill Slope (RGS4)	RGS8 Hill Slope (RGS8)	IC50 (RGS8; [1]) [µM]	IC50 (RGS8; Table 6, FCPIA) [µM]	Emax at 10 µM (HEK293 cells) [%]	IC50 (RGS4; [1]) [µM]	IC50 (RGS4; Table 6, FCPIA) [µM]	induction of calcium transient by compound alone (HEK293 cells)
CN(C)c1ccc(-n2sc(=O)n(Cc3ccc(F)cc3)c2=O)cc1 [S2, 2-(4-dimethylaminophenyl)-4-(4-fluorobenzyl)-1,2,4-thiadiazolidine-3,5-dione]	−1.65	−1.28	10.3	10.3	111			
O=c1sn(-c2ccc(Cl)c(Cl)c2)c(=O)n1Cc1ccccc1 [CCG-203725]	−2.06	−1.62		13.2	64.2	0.089		
O=c1sn(-c2cccc(Cl)c2)c(=O)n1Cc1ccc(F)cc1 [CCG-203776, 2-(3-chlorophenyl)-4-(4-fluorobenzyl)-1,2,4-thiadiazolidine-3,5-dione]	−1.08	−1.07	12.8		223	0.052		
Cc1ccc(Cn2sc(=O)n(Cc3ccccc3)c2=O)cc1 [CCG-203734, 2-(4-methylbenzyl)-4-benzyl-1,2,4-thiadiazolidine-3,5-dione]	−0.84	−0.66	20.4		591		0.0072	
COc1ccc(-n2sc(=O)n(Cc3ccc(Cl)cc3)c2=O)cc1 [S6, 2-(4-methoxyphenyl)-4-(4-chlorobenzyl)-1,2,4-thiadiazolidine-3,5-dione]	−1.73	−0.91	40.2	40.2	104			
O=c1sn(-c2ccc(Cl)cc2)c(=O)n1Cc1ccccc1 [CCG-203723, 2-(4-chlorophenyl)-4-benzyl-1,2,4-thiazolidine-3,5-dione]	−1.99	−0.80	5.2		120	0.029		
Cc1ccc(Cn2sc(=O)n(Cc3ccc(F)cc3)c2=O)cc1 [CCG-203742, 2-(4-methylbenzyl)-4-(4-fluorobenzyl)-1,2,4-thiadiazolidine-3,5-dione]	−1.19	−0.22	39.8		108	0.013		
COc1ccc(Cn2c(=O)sn(Cc3ccc(C)cc3)c2=O)cc1 [S28, 2-(4-methylbenzyl)-4-(4-methoxybenzyl)-1,2,4-thiadiazolidine-3,5-dione]	−2.42	−0.64	92.9	92.9	169			
Cc1ccc(-n2sc(=O)n(Cc3cccc(Cl)c3)c2=O)cc1 [CCG-203777, 2-p-tolyl-4-(3-chlorobenzyl)-1,2,4-thiadiazolidine-3,5-dione]	−0.96	−1.00	17.5		179	0.017		
CCCCn1sc(=O)n(C)c1=O [CCG-203757, 2-butyl-4-methyl-1,2,4-thiadiazolidine-3,5-dione]	−1.01	−1.10	28.4		138		0.0235	
CC(C)(C)c1ccc(Cn2c(=O)sn(-c3ccccc3)c2=O)cc1 [S35, 2-phenyl-4-(4-t-butylbenzyl)-1,2,4-thiadiazolidine-3,5-dione]	−1.72		> 100	> 100	14.4			
Cc1ccc(-n2sc(=O)n(CC(C)C)c2=O)cc1 [CCG-203761, 2-p-tolyl-4-isobutyl-1,2,4-thiadiazolidine-3,5-dione]	−1.47	−0.92		7.7	98.9		0.014	
Cc1ccc(Cn2sc(=O)n(Cc3ccc(Cl)cc3)c2=O)cc1 [S8, 2-(4-methylbenzyl)-4-(4-chlorobenzyl)-1,2,4-thiadiazolidine-3,5-dione]	−1.23	−0.60	337	337	11.4			
O=c1sn(-c2cccc(Cl)c2)c(=O)n1Cc1ccccc1 [CCG-203773, 2-(3-chlorophenyl)-4-benzyl-1,2,4-thiadiazolidine-3,5-dione]	−1.25	−0.87		10.9	199	0.033		
COc1ccc(Cn2c(=O)sn(-c3ccc(Cl)c(Cl)c3)c2=O)cc1 [S27, 2-(3,4-dichlorophenyl)-4-(4-methoxybenzyl)-1,2,4-thiadiazolidine-3,5-dione]	−1.04	−1.50	36	36	63.4			
O=c1sn(-c2ccc(Cl)c(Cl)c2)c(=O)n1Cc1ccc(F)cc1 [CCG-203728, 2-(3,4-dichlorophenyl)-4-(4-fluorobenzyl)-1,2,4-thiadiazolidine-3,5-dione]	−1.15	−1.78	17.2		128	0.036		
O=c1sn(-c2cccc(Cl)c2)c(=O)n1Cc1cccc(Cl)c1 [S17, 2-(3-chlorophenyl)-4-(3-chlorobenzyl)-1,2,4-thiadiazolidine-3,5-dione]	−1.55	−1.66	21.1	21.1	67.8			
O=c1sn(-c2cccc(C(F)(F)F)c2)c(=O)n1Cc1ccccc1 [CCG-203772]	−1.43	−1.15	16.4		165	0.057		
Cc1ccc(Cn2c(=O)sn(-c3ccc(C)cc3)c2=O)cc1 [CCG-203736, 2-p-tolyl-4-(4-methylbenzyl)-1,2,4-thiadiazolidine-3,5-dione]	−1.35	−1.45	11.6		4.9		0.0086	
Cn1c(=O)sn(C(C)(C)C)c1=O [CCG-203760, 2-t-butyl-4-methyl-1,2,4-thiadiazolidine-3,5-dione]	−0.99	−0.89		56	47.2	0.028		no ability to induce calcium mobilization
COc1ccc(-n2sc(=O)n(Cc3ccccc3)c2=O)cc1 [CCG-203746, 2-(4-methoxyphenyl)-4-benzyl-1,2,4-thiadiazolidine-3,5-dione]	−1.45	−1.00	12.3		74.6	0.024		
Cc1ccc(Cn2sc(=O)n(Cc3ccc(Cl)c(Cl)c3)c2=O)cc1 [S33, 2-(4-methylbenzyl)-4-(3,4-dichlorobenzyl)-1,2,4-thiadiazolidine-3,5-dione]	−1.33	−0.71	109	109	51.7			
Cc1cccc(Cn2c(=O)sn(-c3cccc(C)c3)c2=O)c1 [S21, 2-m-tolyl-4-(3-methylbenzyl)-1,2,4-thiadiazolidine-3,5-dione]	−1.79	−0.82	10.4	10.4	63.3			
O=c1sn(-c2ccc(Cl)cc2)c(=O)n1Cc1ccc(Cl)cc1 [S5, 2-(4-chlorophenyl)-4-(4-chlorobenzyl)-1,2,4-thiadiazolidine-3,5-dione]	−1.48	−1.36	12.7	12.7	141			
CC(C)(C)c1ccc(Cn2c(=O)sn(-c3ccc(C(C)(C)C)cc3)c2=O)cc1 [S36, 2-(4-t-butylphenyl)-4-(4-t-butylbenzyl)-1,2,4-thiadiazolidine-3,5-dione]	−1.70		> 100	> 100	14.8			
CC(C)(C)c1ccc(-n2sc(=O)n(Cc3ccccc3)c2=O)cc1 [S3, 2-(4-t-butylphenyl)-4-benzyl-1,2,4-thiadiazolidine-3,5-dione]	−1.79	−0.78	17.4	17.4	123			
O=c1sn(-c2ccc(Cl)cc2)c(=O)n1Cc1ccc(Cl)c(Cl)c1 [S30, 2-(4-chlorophenyl)-4-(3,4-dichlorobenzyl)-1,2,4-thiadiazolidine-3,5-dione]	−1.31	−0.76	16.7	16.7	-0.1			
CCn1sc(=O)n(CC(C)C)c1=O [CCG-203762, 2-ethyl-4-isobutyl-1,2,4-thiadiazolidine-3,5-dione]	−0.87	−0.78		70.6	38.3	0.026		no ability to induce calcium mobilization
Cc1cccc(-n2sc(=O)n(Cc3ccc(F)cc3)c2=O)c1 [CCG-203788, 2-(3-methylphenyl)-4-(4-fluorobenzyl)-1,2,4-thiadiazolidine-3,5-dione]	−1.91	−1.09	7.1		134	0.121		
